Results from PMC8400955 (Pharmaceuticals, 2021).
Where two headings read alike, the source gives them in different places.

Experiments:
[1] = test system: CYP2B6; test: CYP induction (enzyme activity) in cryopreserved human hepatocytes, CYP2B6; conditions: for fold induction at 72 h, 1000 µM / fold induction at 72 h, 30 µM: human, plated cryopreserved human hepatocytes; for Percent of Control / fold induction at 72 h, 30 µM: 30 µM
Experimental: (§1) The UPLC–MS/MS (SHIMADZU, LC-30AD) equipped with waters Xselect®HSS T3 2.5 μm (2.1 × 50 mm) was used to detect the marker metabolites in the enzyme activity assay. The fold-induction enzyme activity was determined using the ratio calculation (the calculation details are available in the Supplementary Materials).
(§2) CYP activity was expressed as pmol/min/million cells where pmol was defined as the amount of metabolite formed during the reaction. […] The fold-induction enzyme activity was determined by the ratio:
(§3) Fold of induction = CYP activity(induced) / CYP activity(vehicle)
(§4) % of positive control = (𝑪𝒀𝑷 𝒂𝒄𝒕𝒊𝒗𝒊𝒕𝒚(𝒊𝒏𝒅𝒖𝒄𝒆𝒅)ି 𝑪𝒀𝑷 𝒂𝒄𝒕𝒊𝒗𝒊𝒕𝒚(𝑫𝑴𝑺𝑶))(𝑪𝒀𝑷 𝒂𝒄𝒕𝒊𝒗𝒊𝒕𝒚(𝒑𝒐𝒔𝒊𝒕𝒊𝒗𝒆 𝒄𝒐𝒏𝒕𝒓𝒐𝒍)ି 𝑪𝒀𝑷 𝒂𝒄𝒕𝒊𝒗𝒊𝒕𝒚(𝑫𝑴𝑺𝑶))х 𝟏𝟎𝟎 Based on the enzyme activity, a minimum of 2-fold increase of a response compared to vehicle control and ≥ 20% of the positive control was considered as the cutoff for a positive signal in in vitro induction

[2] = test system: CYP3A4; test: CYP induction (enzyme activity) in cryopreserved human hepatocytes, CYP3A4; assay type: in vitro ADME; conditions: 30 µM; for fold induction at 72 h, 30 µM: human, plated cryopreserved human hepatocytes
[3] = test system: CYP1A2; test: CYP induction (enzyme activity) in cryopreserved human hepatocytes, CYP1A2; conditions: for Percent of Control / fold induction at 72 h, 30 µM: 30 µM; for fold induction at 72 h, 30 µM / fold induction at 72 h, 50 µM: human, plated cryopreserved human hepatocytes
Experimental: as §1, §2, §3, §4

[4] = Bidirectional permeability across Caco-2 cell monolayers; assay type: in vitro ADME; conditions: human; for recovery at 120 min, 5 μM: Caco-2, Caco-2, 5 μM; for Papp A→B at 120 min, 5 μM / Papp B→A at 120 min, 5 μM / efflux ratio at 120 min, 5 μM: Caco-2, 5 μM
Experimental: The bidirectional permeability and absorption mechanism of ZB716 was evaluated across Caco-2 cell monolayers.
The apical-to-basolateral (A–B) and basolateral-to-apical (B–A) transport of ZB716 in HBSS (25 mM HEPES) with 1% BSA was measured across Caco-2 cell monolayers. […] All incubations were performed in triplicate, and the integrity of the cell monolayers was confirmed using the marker Lucifer yellow.
The slope, k, was determined by linear
using the following equation: […]
1.4 Intestinal Mucosal Permeation of ZB716
Papp= VAArea х timeх ሾdrugሿreceiverሾdrugሿinitial,donor

CCC1(c2ccccc2)C(=O)NC(=O)NC1=O [Phenobarbital, phenobarbital, reference compound]
fold induction at 72 h, 1000 µM ([1]; donor one): 5.44 ± 0.13 | fold induction at 72 h, 1000 µM ([1]; donor three): 6.29 ± 0.9 | fold induction at 72 h, 1000 µM ([1]; donor two): 6.86 ± 0.36

CCOC(=O)c1ncn2c1CN(C)C(=O)c1cc(F)ccc1-2 [Flumazenil, flumazenil, reference compound]
Percent of Control ([2]; donor one): 1.16% | Percent of Control ([2]; donor three): 3.11% | Percent of Control ([2]; donor two): 4.37% | fold induction at 72 h, 30 µM ([2]; donor one): 1.06 ± 0.09 | fold induction at 72 h, 30 µM ([2]; donor three): 1.23 ± 0.09 | fold induction at 72 h, 30 µM ([2]; donor two): 1.39 ± 0.04 | Percent of Control ([3]; donor one): −2.20% | Percent of Control ([3]; donor three): −3.60% | Percent of Control ([3]; donor two): 0.450% | fold induction at 72 h, 30 µM ([3]; donor one): 0.818 ± 0.032 | fold induction at 72 h, 30 µM ([3]; donor three): 0.807 ± 0.177 | fold induction at 72 h, 30 µM ([3]; donor two): 1.06 ± 0.11 | Percent of Control ([1]; donor one): 3.77% | Percent of Control ([1]; donor three): 5.23% | Percent of Control ([1]; donor two): −3.61% | fold induction at 72 h, 30 µM ([1]; donor one): 1.17 ± 0.04 | fold induction at 72 h, 30 µM ([1]; donor three): 1.28 ± 0.2 | fold induction at 72 h, 30 µM ([1]; donor two): 0.789 ± 0.07

Nc1cc(N2CCCCC2)nc(N)[n+]1[O-] [Minoxidil, minoxidil, reference compound]
recovery at 120 min, 5 μM ([4]; read-out: Recovery A to B): 91 ± 1.4% | recovery at 120 min, 5 μM ([4]; read-out: Recovery B to A): 94.4 ± 48% | Papp A→B at 120 min, 5 μM [4]: 6.47 ± 0.22 ×10⁻⁶ cm/s | Papp B→A at 120 min, 5 μM [4]: 7.44 ± 0.47 ×10⁻⁶ cm/s | efflux ratio at 120 min, 5 μM [4]: 1.15 ± 0.09

C[C@H]1O[C@@H](O[C@H]2[C@@H](O)C[C@H](O[C@H]3[C@@H](O)C[C@H](O[C@H]4CC[C@@]5(C)[C@H](CC[C@@H]6[C@@H]5C[C@@H](O)[C@]5(C)[C@@H](C7=CC(=O)OC7)CC[C@]65O)C4)O[C@@H]3C)O[C@@H]2C)C[C@H](O)[C@@H]1O [Digoxin, digoxin, reference compound]
recovery at 120 min, 5 μM ([4]; read-out: Recovery A to B): 92.4 ± 1% | recovery at 120 min, 5 μM ([4]; read-out: Recovery B to A): 86 ± 6% | Papp A→B at 120 min, 5 μM [4]: 0.687 ± 0.088 ×10⁻⁶ cm/s | Papp B→A at 120 min, 5 μM [4]: 14.5 ± 1.68 ×10⁻⁶ cm/s | efflux ratio at 120 min, 5 μM [4]: 21.2 ± 2

COc1ccc2[nH]c([S+]([O-])Cc3ncc(C)c(OC)c3C)nc2c1 (stereo not shown) [Omeprazole, omeprazole, reference compound]
fold induction at 72 h, 50 µM ([3]; donor one): 9.28 ± 0.223 | fold induction at 72 h, 50 µM ([3]; donor three): 6.37 ± 0.14 | fold induction at 72 h, 50 µM ([3]; donor two): 15 ± 1.8
